ChEMBL document CHEMBL5604061, “ASAP - WNV NS2B-NS3 protease fluorescence dose response” (2024)

Each compound was assayed against T1, NS3 (West Nile virus, UniProt K4FQI5) (assay: Functional biochemical assay to identify treatments for viral infectious disease that targets West Nile NS2B-NS3 protease. Utilizing a direct enzyme activity measurement method, reading the fluorescence intensity is used to characterize the relative potency of inhibitors as IC50.).
T1 sequence (K4FQI5 whole entry): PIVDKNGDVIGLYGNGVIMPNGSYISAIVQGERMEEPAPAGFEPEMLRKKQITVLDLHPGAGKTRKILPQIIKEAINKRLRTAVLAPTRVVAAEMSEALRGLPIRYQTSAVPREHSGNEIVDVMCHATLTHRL
Set-up: species or system NY-99

First: CCOC(=O)[C@H](Nc1ccc2c(c1)CNC2)c1cc(Cl)cc(C2CC2)c1
Second: COCc1cc(Cl)cc([C@H](Nc2ccc3c(c2)CNC3)C(=O)NCC(F)F)c1
The IC50 of the first is 5.5-fold higher: 845 nM for the first, 154 nM for the second.

Going from `O=C(Nc1ccc2c(c1)CNC2)c1ccc2[nH]cc(C3CCNCC3)c2c1` to `O=C(Nc1ccc2c(c1)CNC2)c1ccc2c(C3=CCNCC3)csc2c1`, the IC50 falls from 11500 nM to 7500 nM (1.5-fold). The second is the more potent here.

`O=C(NCC(F)F)[C@H](Nc1ccc2c(c1)CNC2)c1cccc(Cl)c1` and `COc1ccc(Cl)cc1[C@H](Nc1ccc2c(c1)CNC2)C(=O)NCC(F)F` are within 1.5-fold of each other in IC50: 477 nM for the first, 531 nM for the second.

Compared with `CC(C)c1nnc(-c2nc3c(C(=O)Nc4ccc5c(c4)CNC5)cc(F)cc3[nH]2)s1`, `O=C(Nc1ccc2c(c1)CNC2)c1cc(F)cc2[nH]c(-c3cccc(F)c3)nc12` is 1.6-fold lower in IC50: 11800 nM for the first, 7290 nM for the second.

Going from `CCOCC1(c2nc3c(C(=O)Nc4ccc5c(c4)CNC5)cc(F)cc3[nH]2)CC1` to `O=C(Nc1ccc2c(c1)CNC2)c1cc(F)cc2[nH]c(CCc3cccnc3)nc12`, the IC50 falls from 9950 nM to 3310 nM (3-fold).

Compared with `O=C(NCC(F)F)[C@H](Nc1ccc2c(c1)CNC2)c1cc(Cl)cc(Cl)c1Cl`, `O=C(NCC(F)F)[C@H](Nc1ccc2c(c1)CNC2)c1cc(Cl)cc2c1CCC2` is 2.2-fold lower in IC50: 936 nM for the first, 420 nM for the second. The second is the more potent here.

Going from `CCc1cc2c(cc1NC(=O)c1cc(F)cc3[nH]ncc13)CNC2` to `CS(=O)(=O)c1cc2c(cc1NC(=O)c1cc(F)cc3[nH]ncc13)CNC2`, the IC50 rises from 1590 nM to 2510 nM (1.6-fold). The first is the more potent here.

Compared with `O=C(NCC(F)F)[C@H](Nc1ccc2c(c1)CNC2)c1cc(Cl)cc2ccoc12`, `Cn1nccc1-c1cc(NC(=O)c2cc(F)cc3[nH]ncc23)cc2c1CNC2` is 7.7-fold higher in IC50: 185 nM for the first, 1430 nM for the second. The first is the more potent here.

`O=C(Nc1ccccc1)OCc1ccccc1` [BENZYL PHENYLCARBAMATE] and `O=C(Nc1ccccc1)Oc1ccccc1` [PHENYL PHENYLCARBAMATE] cannot be ordered by IC50: greater than 100000 nM for the first, greater than 100000 nM for the second.
